Assay: in vitro
Conditions: human, hela cells, % viability
`O=C1NCCN1CCOc1nccnc1-c1ccc(F)cc1` [CBK106898] gave a viability at 28.5 h, 10 µM of 97.8%. `COCc1cccc(-c2nccnc2OCc2ccccn2)c1` [CBK106953] gave a viability at 28.5 h, 10 µM of 96%. `COCc1cccc(-c2nccnc2OCC(=O)OC)c1` [CBK106976] showed a viability at 28.5 h, 10 µM of 98.7%. `Cc1ccc(-c2nccnc2OCc2ccccn2)c(C)c1` [CBK106979] showed a viability at 28.5 h, 10 µM of 90.7%. With `Cc1ccc(-c2nccnc2OC2CCCCC2)c(C)c1` [CBK106983] the viability at 28.5 h, 10 µM was 94%. In the case of `CC(=O)Nc1ccc(CCOc2nccnc2-c2ccc(C)cc2C)cc1` [CBK106985], the viability at 28.5 h, 10 µM is reported as 96.7%. `Cc1ccc(-c2nccnc2OCCOc2ccccc2)c(C)c1` [CBK106991] showed a viability at 28.5 h, 10 µM of 86.1%. In the case of `O=C1CCCN1CCOc1nccnc1-c1ccccc1Cl` [CBK106999], the viability at 28.5 h, 10 µM is reported as 100%. In the case of `COc1nccnc1-c1ccccc1Cl` [CBK107000], the viability at 28.5 h, 10 µM is reported as 100%. With `Clc1ccccc1-c1nccnc1OC(c1ccccc1)c1ccccc1` [CBK107002] the viability at 28.5 h, 10 µM was 92.9%. `Clc1ccccc1-c1nccnc1OCCOc1ccccc1` [CBK107011] gave a viability at 28.5 h, 10 µM of 95.9%. Work on `COc1ccc(-c2nccnc2OC)c(OC)c1` [CBK107039] yielded a viability at 28.5 h, 10 µM of 114%. `c1ccc(COc2nccnc2-c2cccs2)nc1` [CBK107055] showed a viability at 28.5 h, 10 µM of 107%. In the case of `COc1cccc(Oc2nccnc2-c2cccs2)c1` [CBK107059], the viability at 28.5 h, 10 µM is reported as 91.6%. In the case of `Cn1cc(-c2nccnc2OCc2ccccn2)cn1` [CBK107067], the viability at 28.5 h, 10 µM is reported as 97.2%. `COc1nccnc1-c1cnn(C)c1` [CBK107069] gave a viability at 28.5 h, 10 µM of 89.6%. Molecule `COc1cccc(Oc2nccnc2-c2cnn(C)c2)c1` [CBK107071] has a viability at 28.5 h, 10 µM of 98%. In the case of `Cn1cc(-c2nccnc2OC2CCCCC2)cn1` [CBK107072], the viability at 28.5 h, 10 µM is reported as 99.7%. `Cn1cc(-c2nccnc2OCCn2cccc2)cn1` [CBK107079] gave a viability at 28.5 h, 10 µM of 88.6%. For `Cn1cc(-c2nccnc2OCCOc2ccccc2)cn1` [CBK107080], the viability at 28.5 h, 10 µM was 94.9%. For `O=C1c2ccccc2C(=O)N1CCOc1nccnc1-c1cnn(Cc2ccccc2)c1` [CBK107089], the viability at 28.5 h, 10 µM was 102%. For `COc1nccnc1-c1cnn(Cc2ccccc2)c1` [CBK107090], the viability at 28.5 h, 10 µM was 101%. In the case of `c1ccc(Cn2cc(-c3nccnc3OC3CCCCC3)cn2)cc1` [CBK107092], the viability at 28.5 h, 10 µM is reported as 93%. `c1ccc(Cn2cc(-c3nccnc3OCCn3ccnc3)cn2)cc1` [CBK107102] gave a viability at 28.5 h, 10 µM of 95.5%. Work on `Clc1ccc(-c2nccnc2OCc2ccccn2)cc1Cl` [CBK107108] yielded a viability at 28.5 h, 10 µM of 94.7%. `CCOC(=O)c1ccc(-c2nccnc2Oc2cccc(OC)c2)cc1` [CBK107115] showed a viability at 28.5 h, 10 µM of 81%. With `O=C(NCCCNC1CCc2[nH]c3ccccc3c2C1)c1cccc(Br)c1` (stereo not drawn) [CBK107130T] the viability at 28.5 h, 10 µM was 86.9%. With `CC1CCCCN1CCCNC(=O)c1ccc(-c2nc(-c3ccc(C#N)cc3)cnc2N)cc1` (stereo not drawn) [CBK107139] the viability at 28.5 h, 10 µM was 111%. `CC(C)Nc1cc(SCc2ccc(F)cc2)ncn1` [CBK107158] gave a viability at 28.5 h, 10 µM of 93.9%. For `CC(C)Nc1cc(SCc2cccc(C(F)(F)F)c2)ncn1` [CBK107161], the viability at 28.5 h, 10 µM was 88.2%. `Clc1ccc(CSc2nccnc2N2CCCC2)cc1` [CBK107177] gave a viability at 28.5 h, 10 µM of 95.9%. For `FC(F)(F)c1cccc(CSc2cc(N3CCCC3)ncn2)c1` [CBK107184], the viability at 28.5 h, 10 µM was 91.1%. In the case of `FC(F)(F)c1nc2ccccc2nc1SC1CCCCC1` [CBK107205], the viability at 28.5 h, 10 µM is reported as 97.2%. `CNC(=O)CSc1nc2ccccc2nc1C(F)(F)F` [CBK107206] showed a viability at 28.5 h, 10 µM of 95.9%. With `C[C@@H]1CN[C@@H](C)CN1Cc1cc(NS(=O)(=O)c2ccccc2Cl)cc2ccoc12` [CBK107211T] the viability at 28.5 h, 10 µM was 98.6%. In the case of `Fc1ccc(CCN2CCCCC2c2cc3ccccc3[nH]2)cc1` (stereo not drawn) [CBK107227T], the viability at 28.5 h, 10 µM is reported as 89.6%. Work on `O=C(c1[nH]nc(O)c1Cc1c(Cl)cccc1Cl)N1CCOCC1` [CBK107228] yielded a viability at 28.5 h, 10 µM of 101%. For `CCCc1n[nH]c(-c2cc(C(F)(F)F)ccc2F)c1C(=O)OCC` [CBK107231], the viability at 28.5 h, 10 µM was 94.6%. Molecule `O=C(Nc1cccnc1)c1cc2cc(Cl)ccc2[nH]1` [CBK107261] has a viability at 28.5 h, 10 µM of 88.7%.

— paper PMC12040169 (PLOS Biology, 2025)
